# pEC50: −log10 of the molar value.
# How the values were obtained:
# TLR7 = target: T1, TLR7 (Homo sapiens, UniProt Q9NYK1); test: Human PBMC cell-based assay, TLR7 agonist GS-986 stimulation, cytokine (IL-6 and IFNα) readout; conditions: human PBMCs, GS-986 400 nM, 6 hours; Table 26; read-out: TLR-7 EC50
# T1 construct: lymphocytes, monocytes and dendritic cells that express TLR7, TLR8 and TLR9; endogenous in cells; host or cells: human PBMCs from healthy donors
# T1 sequence (Q9NYK1 27-1049): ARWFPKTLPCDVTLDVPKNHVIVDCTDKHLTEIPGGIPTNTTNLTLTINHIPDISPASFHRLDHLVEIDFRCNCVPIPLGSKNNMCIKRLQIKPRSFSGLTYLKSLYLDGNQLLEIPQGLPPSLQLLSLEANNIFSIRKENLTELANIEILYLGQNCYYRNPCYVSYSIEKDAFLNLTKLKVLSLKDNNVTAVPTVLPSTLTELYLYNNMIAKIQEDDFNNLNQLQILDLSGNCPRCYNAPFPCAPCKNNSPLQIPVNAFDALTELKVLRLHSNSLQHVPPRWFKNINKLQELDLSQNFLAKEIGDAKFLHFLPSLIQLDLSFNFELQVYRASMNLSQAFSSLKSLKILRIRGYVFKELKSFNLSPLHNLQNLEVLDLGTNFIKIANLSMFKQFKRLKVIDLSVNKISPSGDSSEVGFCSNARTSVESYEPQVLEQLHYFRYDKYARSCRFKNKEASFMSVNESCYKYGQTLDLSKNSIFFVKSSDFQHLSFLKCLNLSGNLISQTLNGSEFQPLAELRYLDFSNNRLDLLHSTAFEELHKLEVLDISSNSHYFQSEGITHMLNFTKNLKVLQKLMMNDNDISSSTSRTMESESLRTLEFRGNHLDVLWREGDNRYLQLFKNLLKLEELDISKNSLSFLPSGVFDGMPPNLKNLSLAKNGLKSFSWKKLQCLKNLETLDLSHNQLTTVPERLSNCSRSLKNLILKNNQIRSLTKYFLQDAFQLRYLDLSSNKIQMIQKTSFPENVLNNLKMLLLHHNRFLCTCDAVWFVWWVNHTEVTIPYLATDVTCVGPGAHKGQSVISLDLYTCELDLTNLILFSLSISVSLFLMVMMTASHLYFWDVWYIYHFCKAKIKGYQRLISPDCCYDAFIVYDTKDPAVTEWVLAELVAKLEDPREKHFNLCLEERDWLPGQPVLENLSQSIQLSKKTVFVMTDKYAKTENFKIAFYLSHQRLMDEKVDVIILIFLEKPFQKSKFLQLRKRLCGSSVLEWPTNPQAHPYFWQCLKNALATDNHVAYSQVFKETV
# Summary of the method: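 Cryopreserved healthy-donor PBMCs (100,000 cells/well, RPMI-1640 + 10% FBS) preincubated 1 h at 37 °C with antagonist (10-point dose response), then stimulated 6 h with GS-986 (400 nM final, TLR7) or ODN-2216 (3 μM final, TLR9). Supernatant IL-6 and IFNα measured by electrochemiluminescence immunoassay; EC50 from sigmoidal fit.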
# TLR8 = target: T2, TLR8 (Homo sapiens, UniProt Q9NR97); test: TLR8 human PBMC cell-based assay, TLR8 agonist Compound A stimulation, cytokine (TNFa and IL12p40) readout; conditions: human PBMCs, Compound A 800 nM, 6 hours; Table 26; read-out: TLR-8 EC50
# T2 construct: lymphocytes, monocytes and dendritic cells that express TLR7, TLR8 and TLR9; endogenous in cells; host or cells: human PBMCs from healthy donors
# T2 sequence (Q9NR97 27-1041): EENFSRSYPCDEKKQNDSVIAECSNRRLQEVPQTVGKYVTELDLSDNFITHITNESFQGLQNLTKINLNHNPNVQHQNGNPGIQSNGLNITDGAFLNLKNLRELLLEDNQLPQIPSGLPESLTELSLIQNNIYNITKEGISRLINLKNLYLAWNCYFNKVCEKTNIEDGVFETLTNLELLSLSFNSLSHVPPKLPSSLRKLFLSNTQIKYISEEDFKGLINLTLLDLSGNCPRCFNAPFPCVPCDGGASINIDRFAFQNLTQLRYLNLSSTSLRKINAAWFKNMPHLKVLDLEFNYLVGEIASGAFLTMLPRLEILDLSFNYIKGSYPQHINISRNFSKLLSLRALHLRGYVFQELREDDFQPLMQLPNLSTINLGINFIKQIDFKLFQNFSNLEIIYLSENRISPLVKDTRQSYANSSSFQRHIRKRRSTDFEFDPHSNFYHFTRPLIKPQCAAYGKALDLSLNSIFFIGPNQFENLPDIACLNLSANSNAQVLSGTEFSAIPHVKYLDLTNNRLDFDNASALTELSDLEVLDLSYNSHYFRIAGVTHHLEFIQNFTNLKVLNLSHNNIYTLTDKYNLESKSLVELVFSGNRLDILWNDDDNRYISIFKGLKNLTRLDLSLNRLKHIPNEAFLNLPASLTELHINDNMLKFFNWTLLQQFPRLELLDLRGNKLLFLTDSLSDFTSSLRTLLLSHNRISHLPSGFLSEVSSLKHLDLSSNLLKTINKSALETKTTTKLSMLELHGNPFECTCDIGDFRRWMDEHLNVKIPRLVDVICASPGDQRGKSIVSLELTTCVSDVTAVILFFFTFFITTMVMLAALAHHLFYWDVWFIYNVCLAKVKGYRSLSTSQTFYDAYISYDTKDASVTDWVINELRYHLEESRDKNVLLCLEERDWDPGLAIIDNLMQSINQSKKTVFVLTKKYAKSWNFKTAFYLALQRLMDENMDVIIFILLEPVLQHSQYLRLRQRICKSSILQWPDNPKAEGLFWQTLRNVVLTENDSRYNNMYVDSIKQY
# Description: Cryopreserved human PBMCs from healthy donors were thawed and resuspended in RPMI-1640 media with L-glutamine (Corning) supplemented with 10% Fetal Bovine Serum (Hyclone) and 1X Penicillin-Streptomycin (Corning). After counting, the cell density was adjusted to 2 million cells/ml and incubated for 1 hour at 37° C., 5% CO2 for recovery. Following the recovery, the cells were plated by adding 50p per well (100,000 cells) to 384-well cell culture plates (Greiner) containing 250nl of test antagonists in 100% DMSO per well, in a 10 points dose response in quadruplicates. PBMCs were incubated in the presence of antagonists for one hour at 37° C., 5% CO2 before being stimulated with TLR8 agonist. Compound A (Gilead Sciences, U.S. Pat. No. 10,285,990) was used as the TLR8 agonist at a final concentration of 800 nM. PBMCs were incubated in the presence of antagonist and the TLR8 agonist for an additional 6 hours at 37° C., […]. At the end of the incubation, the cell culture plates were centrifuged at 500 g for 5 min, and the cell culture supernatant was collected. The level of cytokines (TNFa and IL12p40) in the supernatant was measured by electrochemiluminescence immunoassays (Mesoscale Discovery) following manufacturer's recommended protocols. The level of cytokine measured was plotted against the antagonist concentration and fitted to a sigmoidal function to determine the EC50, which are shown below in Table 11.
pEC50 (TLR7),pEC50 (TLR8),SMILES
9.96,8.29,CCc1c(-c2cc(C)c3ncnn3c2)[nH]c2cc(-c3ccc(N4CCN(CCO)CC4)nc3)ccc12 [Example 173]
7.31,6.57,Cc1c(-c2cc(C)c3ncnn3c2)[nH]c2cc(-c3nnc(C4CCNCC4)o3)ccc12 [Example 191]
7.18,6.39,Cc1c(-c2cc(C)c3ncnn3c2)[nH]c2cc(-c3nnc(N4CCNCC4)o3)ccc12 [Example 192]

# The next lines start with the compound.
SMILES,pEC50 (TLR7),pEC50 (TLR8)
CCc1c(-c2cc(OC)c3ncnn3c2)[nH]c2cc(-c3ccc(N4CCN(C(=O)C56CC(CN5)C6)CC4)nc3)ccc12 [Example 174],9.92,8.48
Cc1cc(-c2[nH]c3cc(-c4ccc(N5CCNCC5)nc4)ccc3c2C2CC2)cn2ncnc12 [Example 175],9.82,8.09

# Source: patent US20250002471A1 (Gilead Sciences, Inc., priority 2020, published 2025)
